Source: US8273787B2, “Activated cytotoxic compounds for attachment to targeting molecules for the treatment of mammalian disease conditions” (Onconova Therapeutics, Inc, priority 2006, dated 2012)

How the values were obtained:
[1] = tested on: Sk-OV-3; assay: 96 hour growth inhibition, Sk-OV-3; format: cell-based; settings: Homo sapiens, Sk-OV-3, OVARIAN
Procedure: (§1) Two compounds were selected from our library of cytotoxic molecules for immunoconjugation since they both have IC50 values in the low nanomolar range. Various tumor cell lines (ATCC) were treated for 96 hours in the presence of increasing concentrations of each compound and the total number of viable cells remaining was determined after 96 hours of exposure. The IC50 value was determined to be the amount of drug required to inhibit the growth of each cell line 50% as compared to vehicle treated cells.

[2] = tested on: SW480; assay: 96 hour growth inhibition, SW480; format: cell-based; settings: Homo sapiens, SW480, COLO-RECTAL
Procedure: as §1

[3] = tested on: U266; assay: growth inhibition, multiple myeloma cell line U266; format: cell-based; settings: Homo sapiens, U-266, CD38 −/+ CD138 + CD20 −
Procedure: as §1
(§2) Pellat-Deceunynk, C., et al., Human Myeloma Cell Lines As A Tool For Studying The Biology Of Multiple Myeloma: A Reappraisal 18 Years After, Blood 86(10):4001-2 (1995); Gooding, R. P., et al., Phenotypic And Molecular Analysis Of Six Human Cell Lines Derived From Patients With Plasma Cell Dyscrasia, British Journal of Haematology 106:669-688 (1999).

[4] = tested on: RPMI 8266; assay: growth inhibition, multiple myeloma cell line RPMI 8266; format: cell-based; settings: Homo sapiens, RPMI8266; RPMI 8266, multiple myeloma, CD38 + CD138 + CD20 −
Procedure: as §1, §2

[5] = tested on: PC-3; assay: 96 hour growth inhibition, PC-3; format: cell-based; settings: Homo sapiens, PC-3, PROSTATE (AR−)
Procedure: as §1

[6] = tested on: Raji; assay: 96 hour growth inhibition, Raji; format: cell-based; settings: Homo sapiens, Burkitt's Lymphoma (B-cell)
Procedure: as §1

[7] = tested on: N417; assay: 96 hour growth inhibition, N417; format: cell-based; settings: N417, SCLC
Procedure: as §1

[8] = tested on: DLD-1; assay: 96 hour growth inhibition, DLD-1; format: cell-based; settings: Homo sapiens, DLD-1, COLO-RECTAL
Procedure: as §1

[9] = tested on: RF48; assay: 96 hour growth inhibition, RF48; format: cell-based; settings: RF48, GASTRIC
Procedure: as §1

[10] = tested on: MIA-PaCa2; assay: 96 hour growth inhibition, MIA-PaCa2; format: cell-based; settings: Homo sapiens, MIA PaCa-2
Procedure: as §1

[11] = tested on: HCT-116; assay: 96 hour growth inhibition, HCT-116; format: cell-based; settings: Homo sapiens, HCT-116, COLO-RECTAL
Procedure: as §1

[12] = tested on: BT474; assay: growth inhibition, breast carcinoma cell line BT474; format: cell-based; settings: Homo sapiens, BT-474; BT474, BREAST (ER+), HER2 ++++
Procedure: as §1
(§3) Certain embodiments of immunoconjugates described herein are targeted to HER2 expressing breast cancer cells. Certain embodiments of immunoconjugates described herein are targeted to multiple myeloma (MM) cell lines expressing the surface antigens CD38 and or CD138. The IC50 value of ON 015100 and ON 013100 was determined for a number of breast cell lines as well as a panel of multiple myeloma cell lines expressing varying levels of each antigen and the data are shown in table (4) and table (5), respectively. […] Two cell lines, SK-BR-3 and BT474, known to express very high levels of HER2 are more than 2 fold more sensitive to ON 013100 as compared to the cell lines which express lower levels of HER2. Marx C., et al., Validated High-Throughput Screening of Drug-Like Small Molecules for Inhibitors of ErbB2 Transcription. Assay Drug Dev. […]

[13] = tested on: Various tumor cell lines (ATCC); assay: 96 hour growth inhibition, various tumor cell lines; format: cell-based; settings: 96 hours exposure, viable cells vs vehicle; read-out: IC50 value range
Procedure: as §1

[14] = tested on: OV-CAR-3; assay: 96 hour growth inhibition, OV-CAR-3; format: cell-based; settings: Homo sapiens, OVCAR-3, OV-CAR-3, OVARIAN
Procedure: as §1

[15] = tested on: RF1; assay: 96 hour growth inhibition, RF1; format: cell-based; settings: RF1, GASTRIC
Procedure: as §1

[16] = tested on: CEM/C2 (RESISTANT); assay: growth inhibition, CEM/C2 (resistant); format: cell-based, Human; settings: for RSIST-ANCE: CEM/C2 (RESISTANT) versus CEM (PARENTAL); for IC50: Homo sapiens, CEM/C2 (RESISTANT), non classical multiple drug resistant
Procedure: as §1
(§4) Another extremely important predictive factor is the ability of these compounds to kill cell lines overexpressing multiple drug resistance (MDR) genes. A very high percentage of cancer patient relapses are due to some form of resistance to traditional chemotherapy. Of these patients, the vast majority express one or more of the MDR genes within the ABC transport gene family. Overexpression of these genes increases the efflux of compounds that are recognized by these pumping systems. […] Onconova's benzyl styryl sulfone compounds are not recognized by the MDR-1 gene and therefore provide an advantage over other highly toxic drugs including but not limited to the taxanes, doxorubicin, etoposide, and vinca-alkaloids. […] MES-SA/Dx5, uterine sarcoma, and […], ovarian, are both classical multidrug resistant cell lines that are cross resistant to the taxanes and anthracyclins. Harker, W G, and Sikic, B. I., Multidrug (Pleiotropic) Resistance In Doxorubicin-Selected Variants Of The Human Sarcoma Cell Line MES-SA, Cancer Res. 45(9):4091-6 (1985). MES-SA/Dx5 and Apr. […] Fujimori, A., et al., Mutation At The Catalytic Site Of Topoisomerase I In CEM/C2, A Human Leukemia Cell Line Resistant To Camptothecin, Cancer Res. 55(6): 1339-46 (1995). ON 01500 and ON 013100, for example, are both extremely active against these resistant cell lines.

[17] = tested on: MES-SA/Dx5 (RESISTANT); assay: growth inhibition, MES-SA/Dx5 (resistant); format: cell-based, Human; settings: for IC50: Homo sapiens, MES-SA/Dx5 (RESISTANT), uterine sarcoma, multidrug resistant; for RSIST-ANCE: MES-SA/Dx5 (RESISTANT) versus MES-SA (PARENTAL)
Procedure: as §1, §4

[18] = tested on: MES-SA (PARENTAL); assay: growth inhibition, MES-SA (parental); format: cell-based; settings: Homo sapiens, uterine sarcoma
Procedure: as §1, §4

[19] = tested on: MOLT-4; assay: 96 hour growth inhibition, MOLT-4; format: cell-based; settings: Homo sapiens, MOLT-4, T-lymphoblastic:ALL
Procedure: as §1

[20] = tested on: DU145; assay: 96 hour growth inhibition, DU145; format: cell-based; settings: Homo sapiens, DU-145, DU145, PROSTATE (AR−)
Procedure: as §1

[21] = tested on: MCF-7; assay: growth inhibition, breast carcinoma cell line MCF-7; format: cell-based; settings: Homo sapiens, MCF7; MCF-7, BREAST (ER+), HER2 +
Procedure: as §1, §3

[22] = tested on: T47D; assay: growth inhibition, breast carcinoma cell line T47D; format: cell-based; settings: Homo sapiens, BREAST (ER+), HER2 +
Procedure: as §1, §3

## COc1cc(OC)c(/C=C/S(=O)(=O)Cc2ccc(OC)c(O)c2)c(OC)c1 [ON 013100, (E)-5-((2,4,6-trimethoxystyrylsulfonyl)methyl)-2-methoxyphenol]
[1]
  IC50: 4 nM
[2]
  IC50: 5 nM
[3]
  IC50: 5 nM
[4]
  IC50: 5 nM
[5]
  IC50: 5 nM
[6]
  IC50: 1 nM
[7]
  IC50: 3 nM
[8]
  IC50: 7 nM
[9]
  IC50: 1 nM
[10]
  IC50: 3 nM
[11]
  IC50: 6 nM
[12]
  IC50: 3 nM
[13]
  IC50: 3 to 5 nM
[14]
  IC50: 30 nM
[15]
  IC50: 3 nM
[16]
  RSIST-ANCE: 0.75
  IC50: 3 nM
[17]
  IC50: 5 nM
  RSIST-ANCE: 1
[18]
  IC50: 5 nM
[19]
  IC50: 1.5 nM
[20]
  IC50: 5 nM
[21]
  IC50: 10 nM
[22]
  IC50: 10 nM

## COc1cc(OC)c(/C=C/S(=O)(=O)Cc2ccc(OC)c(N)c2)c(OC)c1 [ON 01500, (E)-2,4,6-trimethoxystyryl-4-methoxy-3-aminobenzylsulfone]
[1]
  IC50: 3 nM
[2]
  IC50: 6 nM
[3]
  IC50: 3 nM
[4]
  IC50: 3 nM
[5]
  IC50: 6 nM
[6]
  IC50: 2 nM
[7]
  IC50: 3 nM
[8]
  IC50: 6 nM
[9]
  IC50: 1 nM
[10]
  IC50: 3 nM
[11]
  IC50: 6 nM
[12]
  IC50: 2 nM
[13]
  IC50: 3 to 5 nM
[14]
  IC50: 3 nM
[15]
  IC50: 2 nM
[16]
  RSIST-ANCE: 1
  IC50: 10 nM
[17]
  IC50: 4 nM
  RSIST-ANCE: 1
[18]
  IC50: 4 nM
[19]
  IC50: 4 nM
[20]
  IC50: 5 nM
[21]
  IC50: 1 nM
[22]
  IC50: 3 nM
